Measurements: publication PMC7725843, “Structural and biochemical analyses of an aminoglycoside 2′-N-acetyltransferase from Mycolicibacterium smegmatis” (Scientific Reports, 2020)

Columns and labels:
AAC(2′)-Id [1] = target: T1, AAC(2′)-Id (Mycolicibacterium smegmatis, UniProt P94968); assay: X-ray crystal structure; format: binding; settings: ternary complexes with gentamicin, sisomicin, neomycin or paromomycin; 5 mM CoA
T1 construct: full-length ORF (630 bp), codon-optimised synthetic gene in pET-28a(+), E. coli BL21(DE3); N-terminal His-tag cut with thrombin; homodimer
T1 sequence (P94968 whole entry): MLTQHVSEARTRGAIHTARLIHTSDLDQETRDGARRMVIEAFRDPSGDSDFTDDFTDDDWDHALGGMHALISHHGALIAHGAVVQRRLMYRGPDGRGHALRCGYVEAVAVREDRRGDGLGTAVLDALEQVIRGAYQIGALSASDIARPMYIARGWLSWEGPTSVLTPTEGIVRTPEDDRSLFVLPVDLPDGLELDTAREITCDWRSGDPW

AAC(2′)-Id [2] = target: T1, AAC(2′)-Id; assay: DTNB assay of CoA release at […] nm, Michaelis-Menten fit; format: biochemical; settings: 300 μM acetyl-CoA, 50 mM MES pH 6.5, 200 μM DTNB, 25 °C

Structure (SMILES) | X-ray crystal structure (AAC(2′)-Id [1]) | Km (μM) (AAC(2′)-Id [2])
CC(C)(COP(=O)(O)OP(=O)(O)OC[C@H]1O[C@@H](n2cnc3c(N)ncnc32)[C@H](O)[C@@H]1OP(=O)(O)O)[C@@H](O)C(=O)NCCC(=O)NCCS [CoA] | chain B contains only a CoA molecule | –
CN[C@@H]1[C@@H](O)[C@@H](O[C@@H]2[C@@H](O)[C@H](O[C@H]3OC(CN)=CC[C@H]3N)[C@@H](N)C[C@H]2N)OC[C@]1(C)O [Sisomicin] | – | (7.30 ± 0.58) × 10 μM
